According to paper PMC9610606, “Design, Synthesis, In Silico Testing, and In Vitro Evaluation of Thiazolidinone-Based Benzothiazole Derivatives as Inhibitors of α-Amylase and α-Glucosidase” (Pharmaceuticals, 2022):

Tests used:
[1] = biological target: T1, α-amylase (Sus scrofa, UniProt P00690); experiment: In vitro α-amylase inhibitory assay; format: biochemical
T1 sequence (P00690 16-511): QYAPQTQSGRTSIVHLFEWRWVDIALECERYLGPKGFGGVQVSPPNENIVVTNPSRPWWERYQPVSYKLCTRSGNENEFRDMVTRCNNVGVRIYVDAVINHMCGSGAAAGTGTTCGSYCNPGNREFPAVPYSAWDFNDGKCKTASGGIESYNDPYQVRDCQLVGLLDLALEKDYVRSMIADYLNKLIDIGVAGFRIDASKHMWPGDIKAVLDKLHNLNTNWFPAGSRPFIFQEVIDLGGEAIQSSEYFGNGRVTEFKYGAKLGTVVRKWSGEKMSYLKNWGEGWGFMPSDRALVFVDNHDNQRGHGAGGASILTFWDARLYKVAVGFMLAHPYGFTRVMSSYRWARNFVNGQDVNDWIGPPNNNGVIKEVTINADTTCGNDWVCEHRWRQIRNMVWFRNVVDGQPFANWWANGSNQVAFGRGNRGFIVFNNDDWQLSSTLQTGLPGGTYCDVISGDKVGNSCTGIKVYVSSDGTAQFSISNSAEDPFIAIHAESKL
Protocol: (§1) Biological profile of all the candidates were obtained through experimental-based analysis, as described in the inhibitory assay (5.3 and 5.4). […]
absorbance was recorded using an ELISA microplate reader at 540 nm. […]
the standard. All the reactions were carried out in triplicates. The reaction mixture, devoid of the test sample, served as control. […]
(§2) PDB format. The process was further carried out in auto dock in which polar hydrogen and Kollman and Gasteiger charges were add ed to protein. Selected ligand was also prepared done by using torsion tree to detect root. Moreover, configuration file was generated along with X, Y and Z axis save both ligand and protein in PDBQT format in the same docking folder. At the end

[2] = biological target: α-glucosidase (Saccharomyces cerevisiae, UniProt P53341); format: biochemical
α-glucosidase, sequence (P53341 whole entry): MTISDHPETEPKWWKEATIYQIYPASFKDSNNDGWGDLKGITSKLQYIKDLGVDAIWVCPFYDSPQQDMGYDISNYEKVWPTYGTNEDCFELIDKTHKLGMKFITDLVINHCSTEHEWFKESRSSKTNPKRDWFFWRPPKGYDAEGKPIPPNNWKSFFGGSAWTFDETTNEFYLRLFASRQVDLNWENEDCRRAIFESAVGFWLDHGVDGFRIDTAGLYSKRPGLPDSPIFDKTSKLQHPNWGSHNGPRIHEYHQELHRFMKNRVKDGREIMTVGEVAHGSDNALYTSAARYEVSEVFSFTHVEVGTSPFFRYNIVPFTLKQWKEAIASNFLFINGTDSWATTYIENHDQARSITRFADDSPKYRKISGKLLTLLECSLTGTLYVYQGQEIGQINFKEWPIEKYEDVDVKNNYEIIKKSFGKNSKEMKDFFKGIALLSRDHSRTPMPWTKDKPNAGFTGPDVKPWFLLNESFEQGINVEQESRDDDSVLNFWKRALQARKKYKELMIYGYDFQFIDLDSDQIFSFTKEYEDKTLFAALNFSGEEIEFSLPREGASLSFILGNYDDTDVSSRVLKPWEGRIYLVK
Protocol: as §1
5.4 α-glucosidase inhibitory assay protocol
10 µl of the α-glucosidase enzyme, 20 µl of test samples (10-50 µg/ml) and 50 µl, of 0.1M […]
nitrophenyl—D-g lucopy ranoside solution was fu rther added as a substrate and again incubated for 20 min at 37 °C. Sodium carbonate (50 µl of 0.1M) was added to terminate the reaction. P- […]
conditions by omitting test samples. All the experiments were carried out in triplicates. The percentage inhibition was calculated by the formula.
% Inhibition = [(Ac – As) /Ac] × 100 Ac-absorbance for control, As-absorbance for standard. […]
as §2

**Q.** With O=C1N/C(=N/c2nccs2)S/C1=C\c1ccc2ncsc2c1-c1cccc([N+](=O)[O-])c1Cl [Compound 9, (2Z,5Z)-5-((7-(2-chloro-3-nitrophenyl)benzo[d]thiazol-6-yl)methylene)-2-(thiazol-2-ylimino)thiazolidin-4-one] as the compound, how does the melting point read?
**A.** Its melting point is 241 to 242 °C.

**Q.** Which melting point does the source give for CN(C)c1cc(/C=C2\S/C(=N\c3nccs3)NC2=O)cc2scnc12 [Compound 10, (2Z,5Z)-5-((4-(dimethylamino)benzo[d]thiazol-6-yl)methylene)-2-(thiazol-2-ylimino)thiazolidin-4-one] here?
**A.** The melting point was 227 to 228 °C.

**Q.** Which melting point does the source give for N#Cc1cccc(-c2c(/C=C3\S/C(=N\c4nccs4)NC3=O)ccc3ncsc23)c1 [Compound 15, 3-(6-((Z)-((Z)-4-oxo-2-(thiazol-2-ylimino)thiazolidin-5-ylidene)methyl)benzo[d]thiazol-7-yl)benzonitrile] here?
**A.** Its melting point is 243 to 244 °C.

**Q.** With “(2Z,5Z)-5-((5-nitrobenzo [d]thiazol-6-yl) methylene)-2-(thiazol-2-ylimino)thiazolidin-4-one [Compound 1]” as the compound, how does the IC50 [1] read?
**A.** The IC50 was 7.7 ± 0.2 µM.

**Q.** What about the IC50 [2] of the same compound?
**A.** Its IC50 is 8.8 ± 0.2 µM.

**Q.** What does the source list for “(2Z,5Z)-5-((7-hydroxy-4-(trifluoromethyl)benzo[d]thiazol-6-yl)methylene)-2-(thiazol-2-ylimino)thiazolidin-4-one [Compound 6]”?
**A.** IC50 [1]: 2.1 ± 0.7 µM; IC50 [2]: 3.2 ± 0.7 µM
